29 compounds from patent US12673944B2, “Compounds having inhibitory activity against glucosylceramide synthase or pharmaceutically acceptable salt thereof, processes for preparing the same, and pharmaceutical compositions comprising the same” (YUHAN CORPORATION, priority 2019, dated 2026) can be followed below.

In assay [1] the target is T1, glucosylceramide synthase (GCS) (Homo sapiens, UniProt Q16739).
T1 construct: The obtained supernatant was used; host or cells: A549 cells (lysate supernatant after sonication)
T1 sequence (Q16739 1-394): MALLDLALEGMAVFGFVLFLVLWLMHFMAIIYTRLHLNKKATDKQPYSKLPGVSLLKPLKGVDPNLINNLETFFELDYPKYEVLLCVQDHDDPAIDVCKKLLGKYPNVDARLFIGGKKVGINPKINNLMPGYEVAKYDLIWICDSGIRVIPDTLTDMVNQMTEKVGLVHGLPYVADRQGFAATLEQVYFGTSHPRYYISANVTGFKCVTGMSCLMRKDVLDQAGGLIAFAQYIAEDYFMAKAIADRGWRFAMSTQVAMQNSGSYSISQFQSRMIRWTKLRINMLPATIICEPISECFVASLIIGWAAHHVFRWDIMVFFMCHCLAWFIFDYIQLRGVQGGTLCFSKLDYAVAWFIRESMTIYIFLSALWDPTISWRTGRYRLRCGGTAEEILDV
The assay is described as follows: GCS enzyme inhibition assay (A549 cell lysate, NBD C6-ceramide, HPLC fluorescence). Format: biochemical. The settings on record: inhibitory activity against GCS, 37° C., 90 minutes. Put shortly: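 Percent GCS activity was derived from the GlcCer share of Cer plus GlcCer areas, scaled from ibiglustat (0%) to DMSO (100%). Enzyme came from sonicated A549 lysate in 50 mM HEPES pH 7.3; 90 min incubation at 37° C, chloroform/methanol stop and extraction.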

Assay [2] relates to GM1 production in Jurkat cells. The assay is described as follows: cells. Conditions: Homo sapiens, Jurkat, 72 h. It counts as cell-based.

For the compound `CC1(C)COc2cc(-c3cccc(C(F)(F)F)c3)ccc2C1NC(=O)O[C@@H]1CN2CCC1CC2` (stereo partly drawn) [Example 104, (S)-quinuclidin-3-yl (3,3-dimethyl-7-(3-(trifluoromethyl)phenyl)chroman-4-yl)carbamate], the IC50 worked out at 1 nM in assay [1] and 1.02 nM in assay [2].

`CC1(C)COc2cc(-c3cccc(OC(F)(F)F)c3)ccc2C1NC(=O)O[C@@H]1CN2CCC1CC2` (stereo partly drawn) [Example 105, (S)-quinuclidin-3-yl (3,3-dimethyl-7-(3-(trifluoromethoxy)phenyl)chroman-4-yl)carbamate]: the half-maximal inhibitory concentration (IC50) in assay [1] was 1.11 nM; in assay [2], 1.41 nM.

With `COCOc1ccccc1-c1ccc2c(c1)OCC(C)(C)C2NC(=O)O[C@@H]1CN2CCC1CC2` (stereo partly drawn) [Example 106, (S)-quinuclidin-3-yl (7-(2-(methoxymethoxy)phenyl)-3,3-dimethylchroman-4-yl)carbamate], the IC50 was determined as 1.17 nM in assay [1] and 0.22 nM in assay [2].

Take `COCOc1cccc(-c2ccc3c(c2)OCC(C)(C)C3NC(=O)O[C@@H]2CN3CCC2CC3)c1` (stereo partly drawn) [Example 107, (S)-quinuclidin-3-yl (7-(3-(methoxymethoxy)phenyl)-3,3-dimethylchroman-4-yl)carbamate]: the figures for the IC50 in assay [1] and in assay [2] were 1.17 nM and 0.1 nM, respectively.

As for `COCOc1ccc(-c2ccc3c(c2)OCC(C)(C)C3NC(=O)O[C@@H]2CN3CCC2CC3)cc1` (stereo partly drawn) [Example 108, (S)-quinuclidin-3-yl (7-(4-(methoxymethoxy)phenyl)-3,3-dimethylchroman-4-yl)carbamate], the IC50 in assay [1] was 0.69 nM; in assay [2], 0.46 nM.

As to `COCCOc1ccccc1-c1ccc2c(c1)OCC(C)(C)C2NC(=O)O[C@@H]1CN2CCC1CC2` (stereo partly drawn) [Example 109, (S)-quinuclidin-3-yl (7-(2-(2-methoxyethoxy)phenyl)-3,3-dimethylchroman-4-yl)carbamate], the IC50 in assay [1] was 2.14 nM; in assay [2], 2 nM.

As to `COCCOc1cccc(-c2ccc3c(c2)OCC(C)(C)C3NC(=O)O[C@@H]2CN3CCC2CC3)c1` (stereo partly drawn) [Example 110, (S)-quinuclidin-3-yl (7-(3-(2-methoxyethoxy)phenyl)-3,3-dimethylchroman-4-yl)carbamate], the values for the IC50 in assay [1] and in assay [2] were 1.3 nM and 0.12 nM, respectively.

`COCCOc1ccc(-c2ccc3c(c2)OCC(C)(C)C3NC(=O)O[C@@H]2CN3CCC2CC3)cc1` (stereo partly drawn) [Example 111, (S)-quinuclidin-3-yl (7-(4-(2-methoxyethoxy)phenyl)-3,3-dimethylchroman-4-yl)carbamate]: the IC50 in assay [1] is 1.93 nM; in assay [2] it was 1.27 nM.

Take `CC1(C)COc2cc(-c3cccc(C(F)F)c3)ccc2C1NC(=O)O[C@@H]1CN2CCC1CC2` (stereo partly drawn) [Example 112, (S)-quinuclidin-3-yl (7-(3-(difluoromethyl)phenyl)-3,3-dimethylchroman-4-yl)carbamate]: the IC50 in assay [1] was 0.53 nM; in assay [2], 0.55 nM.

For the compound `Cc1ccc(-c2ccc3c(c2)OCC(C)(C)C3NC(=O)O[C@@H]2CN3CCC2CC3)c2cccnc12` (stereo partly drawn) [Example 113, (S)-quinuclidin-3-yl (3,3-dimethyl-7-(8-methylquinolin-5-yl)chroman-4-yl)carbamate], the values for the IC50 in assay [1] and in assay [2] were 2.92 nM and 13 nM, respectively.

Consider `COc1cc(OC)cc(-c2ccc3c(c2)OCC(C)(C)C3NC(=O)O[C@@H]2CN3CCC2CC3)c1` (stereo partly drawn) [Example 114, (S)-quinuclidin-3-yl (7-(3,5-dimethoxyphenyl)-3,3-dimethylchroman-4-yl)carbamate], for which the results for the IC50 in assay [1] and in assay [2] were 0.75 nM and 2.81 nM, respectively.

With `COc1ccc(-c2ccc3c(c2)OCC(C)(C)C3NC(=O)O[C@@H]2CN3CCC2CC3)cc1C` (stereo partly drawn) [Example 115, (S)-quinuclidin-3-yl (7-(4-methoxy-3-methylphenyl)-3,3-dimethylchroman-4-yl)carbamate], the figures for the IC50 in assay [1] and in assay [2] were 1.88 nM and 3.72 nM, respectively.

Turning to `COc1ccc(-c2ccc3c(c2)OCC(C)(C)C3NC(=O)O[C@@H]2CN3CCC2CC3)c(C)c1` (stereo partly drawn) [Example 116, (S)-quinuclidin-3-yl (7-(4-methoxy-2-methylphenyl)-3,3-dimethylchroman-4-yl)carbamate], the IC50 in assay [1] is 1.39 nM; in assay [2], 1.16 nM.

Turning to `COc1ccc(-c2ccc3c(c2)OCC(C)(C)C3NC(=O)O[C@@H]2CN3CCC2CC3)cc1Cl` (stereo partly drawn) [Example 117, (S)-quinuclidin-3-yl (7-(3-chloro-4-methoxyphenyl)-3,3-dimethylchroman-4-yl)carbamate], the figures for the IC50 in assay [1] and in assay [2] were 1.66 nM and 4.43 nM, respectively.

Consider `COc1ccc(-c2ccc3c(c2)OCC(C)(C)C3NC(=O)O[C@@H]2CN3CCC2CC3)cc1F` (stereo partly drawn) [Example 118, (S)-quinuclidin-3-yl (7-(3-fluoro-4-methoxyphenyl)-3,3-dimethylchroman-4-yl)carbamate], for which the IC50 worked out at 1.63 nM in assay [1] and 3.63 nM in assay [2].

`COc1ccc(-c2ccc3c(c2)OCC(C)(C)C3NC(=O)O[C@@H]2CN3CCC2CC3)c(Cl)c1` (stereo partly drawn) [Example 119, (S)-quinuclidin-3-yl (7-(2-chloro-4-methoxyphenyl)-3,3-dimethylchroman-4-yl)carbamate]: the IC50 worked out at 0.65 nM in assay [1] and 1.25 nM in assay [2].

In the case of `COc1cc(F)ccc1-c1ccc2c(c1)OCC(C)(C)C2NC(=O)O[C@@H]1CN2CCC1CC2` (stereo partly drawn) [Example 120, (S)-quinuclidin-3-yl (7-(4-fluoro-2-methoxyphenyl)-3,3-dimethylchroman-4-yl)carbamate], the IC50 in assay [1] was determined as 0.71 nM; in assay [2] it was 6.41 nM.

For `COc1cccc(Cl)c1-c1ccc2c(c1)OCC(C)(C)C2NC(=O)O[C@@H]1CN2CCC1CC2` (stereo partly drawn) [Example 121, (S)-quinuclidin-3-yl (7-(2-chloro-6-methoxyphenyl)-3,3-dimethylchroman-4-yl)carbamate], the IC50 in assay [1] stood at 2.67 nM; in assay [2], 15.9 nM.

Take `COc1cccc(F)c1-c1ccc2c(c1)OCC(C)(C)C2NC(=O)O[C@@H]1CN2CCC1CC2` (stereo partly drawn) [Example 122, (S)-quinuclidin-3-yl (7-(2-fluoro-6-methoxyphenyl)-3,3-dimethylchroman-4-yl)carbamate]: the IC50 turned out to be 0.96 nM in assay [1] and 3.75 nM in assay [2].

With `COc1cc(F)c(-c2ccc3c(c2)OCC(C)(C)C3NC(=O)O[C@@H]2CN3CCC2CC3)cc1F` (stereo partly drawn) [Example 123, (S)-quinuclidin-3-yl (7-(2,5-difluoro-4-methoxyphenyl)-3,3-dimethylchroman-4-yl)carbamate], the half-inhibitory concentration (IC50) in assay [1] was 0.79 nM; in assay [2], 4.24 nM.

On to `CCOc1ccc(-c2ccc3c(c2)OCC(C)(C)C3NC(=O)O[C@@H]2CN3CCC2CC3)cc1F` (stereo partly drawn) [Example 124, (S)-quinuclidin-3-yl (7-(4-ethoxy-3-fluorophenyl)-3,3-dimethylchroman-4-yl)carbamate], for which the IC50 in assay [1] amounted to 0.75 nM; in assay [2], 4.47 nM.

Regarding `COc1ccc(-c2ccc3c(c2)OCC(C)(C)C3NC(=O)O[C@@H]2CN3CCC2CC3)c(OC)c1` (stereo partly drawn) [Example 125, (S)-quinuclidin-3-yl (7-(2,4-dimethoxyphenyl)-3,3-dimethylchroman-4-yl)carbamate], the values for the IC50 in assay [1] and in assay [2] were 0.86 nM and 3.85 nM, respectively.

Regarding `COc1ccc(OC)c(-c2ccc3c(c2)OCC(C)(C)C3NC(=O)O[C@@H]2CN3CCC2CC3)c1` (stereo partly drawn) [Example 126, (S)-quinuclidin-3-yl (7-(2,5-dimethoxyphenyl)-3,3-dimethylchroman-4-yl)carbamate], the IC50 in assay [1] is 0.58 nM; in assay [2] it was 0.85 nM.

As for `COc1cccc(-c2ccc3c(c2)OCC(C)(C)C3NC(=O)O[C@@H]2CN3CCC2CC3)c1OC` (stereo partly drawn) [Example 127, (S)-quinuclidin-3-yl (7-(2,3-dimethoxyphenyl)-3,3-dimethylchroman-4-yl)carbamate], the IC50 in assay [1] was 2.11 nM; in assay [2], 14.2 nM.

Consider `COc1ccc(-c2ccc3c(c2)OCC(C)(C)C3NC(=O)O[C@@H]2CN3CCC2CC3)cc1OC` (stereo partly drawn) [Example 128, (S)-quinuclidin-3-yl (7-(3,4-dimethoxyphenyl)-3,3-dimethylchroman-4-yl)carbamate], for which the results for the IC50 in assay [1] and in assay [2] were 2.84 nM and 23.2 nM, respectively.

`COc1ccc(-c2ccc3c(c2)OCC(C)(C)C3NC(=O)O[C@@H]2CN3CCC2CC3)c(OC)n1` (stereo partly drawn) [Example 129, (S)-quinuclidin-3-yl (7-(2,6-dimethoxypyridin-3-yl)-3,3-dimethylchroman-4-yl)carbamate]: the IC50 in assay [1] came out at 1.15 nM; in assay [2] it was 4.56 nM.

With `CC1(C)COc2cc(-c3ccc4ccccc4c3)ccc2C1NC(=O)O[C@@H]1CN2CCC1CC2` (stereo partly drawn) [Example 130, (S)-quinuclidin-3-yl (3,3-dimethyl-7-(naphthalen-2-yl)chroman-4-yl)carbamate], the IC50 in assay [1] came to 0.71 nM; in assay [2], 1.4 nM.

`CC1(C)COc2cc(-c3cccc4ccccc34)ccc2C1NC(=O)O[C@@H]1CN2CCC1CC2` (stereo partly drawn) [Example 131, (S)-quinuclidin-3-yl (3,3-dimethyl-7-(naphthalen-1-yl)chroman-4-yl)carbamate]: the IC50 in assay [1] was determined as 1.02 nM; in assay [2] it was 1.21 nM.

With `CC1(C)COc2cc(-c3ccc4ncccc4c3)ccc2C1NC(=O)O[C@@H]1CN2CCC1CC2` (stereo partly drawn) [Example 132, (S)-quinuclidin-3-yl (3,3-dimethyl-7-(quinolin-6-yl)chroman-4-yl)carbamate], the results for the IC50 in assay [1] and in assay [2] were 1.55 nM and 8.95 nM, respectively.
